Holding throughout (type): biochemical
Assay [1] addresses purified urinary kallikrein (Homo sapiens, UniProt P06870). Briefly: Urinary kallikrein-catalyzed hydrolysis of N-alpha-acylated substrates relative to non-acylated compounds. To be noted: approximately 20 nM substrate, 60 ng purified urinary kallikrein, 100 μl 0.1 M tris HCl pH 9.5, 37° C., 15 minutes; conditions optimized for non-acylated substrate.
The target in assay [2] is T1, human urinary kallikrein (Homo sapiens, UniProt P06870).
T1 construct: dialyzed or gel-filtered human urine in the general A1 assay
T1 sequence (P06870 25-262): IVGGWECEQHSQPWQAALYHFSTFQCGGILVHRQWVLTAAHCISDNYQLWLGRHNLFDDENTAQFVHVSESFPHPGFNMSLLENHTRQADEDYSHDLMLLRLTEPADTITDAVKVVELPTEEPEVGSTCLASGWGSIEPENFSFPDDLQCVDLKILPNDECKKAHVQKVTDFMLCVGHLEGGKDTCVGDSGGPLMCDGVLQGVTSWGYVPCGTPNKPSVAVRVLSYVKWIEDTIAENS
Briefly: Assay of human urinary kallikrein: suitability as substrate (in words). How it is done:
Human urine is treated to remove low molecular weight impurities, either by overnight dialysis against 0.9%(w/v) NaCl or by gel filtration. A typical reaction mixture may contain 50 μl dialyzed urine and 0.1 μCi of substrate at a final concentration of 20 ng/ml buffered with 0.1 M tris-HCl, pH 9.5, in a total reaction volume of 100 μl. Reaction tubes are incubated at 37° C. for two hours. Variations of incubation time and temperature for the purpose of increasing or decreasing the amount of product formed are known expedients within the scope of ordinary skill in the art. Reactions may be stopped by any technique which causes rapid termination of the enzyme-catalyzed reaction without significant alteration of the product concentration. Use of an excess volume of base, e.g., 1.0 ml of 0.1 NaOH, is preferred. The product is separated from the reaction mixture by extraction with a measured volume of an aprotic solvent such as toluene or ether, or by other suitable means such as ion-exchange chromatography. Where solvent extraction is employed, an aliquot of the solvent (containing reaction product) may be sampled for radioactivity counting. Scintillation counting is preferred for counting tritium, and use of an extracting solvent such as toluene or ether permits direct transfer of a solvent aliquot to the scintillation fluid.
A standard curve may be constructed substituting purified kallikrein for dialyzed urine. A unit of enzyme is defined herein as that amount required to hydrolyze substrate at an initial rate of 1% per minute at 37° C. The foregoing definition is applicable where the concentration of substrate is well below Km such that hydrolysis is first order with respect to substrate concentration. The number of kallikrein units/ml of dialyzed urine is given by [formula] where 1.0 ml of solvent is used for the extraction and an aliquot of 0.5 ml is taken for counting. The blank c.p.m. value is determined in a control reaction lacking enzyme but otherwise treated identically.

The target of assay [3] is T1, human urinary kallikrein. Briefly: Reaction specificity: hydrolysis by serine proteases. To be noted: 20 nM substrate, 0.1 M tris-HCl, 37° C., 15 minutes. How it is done: (§1) The hydrolysis of H-ProPheArg-[^3 H]benzylamide by a series of serine proteases was measured. Reactions were carried out using 20 nM substrate in 0.1 M tris-HCl buffer, pH 7.5 or pH 9.5, at 37° C. for 15 minutes in the presence of varied amounts of enzyme. The results are shown in Table 2, expressed as the amount of enzyme necessary to hydrolyze 10% of the substrate under the given conditions. "No hydrolysis" is used to denote no measureable reaction with a maximum of 0.5 mg/ml enzyme.

For a further assay, the system named is Thrombin. Described as above. To be noted: printed on the pH 9.5 line (pH 7.5 line blank); No hydrolysis = no measureable reaction with a maximum of 0.5 mg/ml enzyme; 20 nM substrate, 37° C., 15 minutes. How it is done:
as §1

The next assay relates to Plasmin. Described as above. The conditions noted are these: 20 nM substrate, 0.1 M tris-HCl, 37° C., 15 minutes. How it is done:
as §1

A further assay relates to Trypsin. The assay is described as above. The conditions noted are these: 20 nM substrate, 0.1 M tris-HCl, 37° C., 15 minutes. Here is the method:
as §1

The test system of a further assay is α-Chymotrypsin. Described as above. The conditions noted are these: printed on the pH 9.5 line (pH 7.5 line blank); No hydrolysis = no measureable reaction with a maximum of 0.5 mg/ml enzyme; 20 nM substrate, 37° C., 15 minutes. How it is done:
as §1

The next assay has as its system Urokinase. The assay is described as above. The conditions noted are these: printed on the pH 9.5 line (pH 7.5 line blank); No hydrolysis = no measureable reaction with a maximum of 0.5 mg/ml enzyme; 20 nM substrate, 37° C., 15 minutes. How it is done:
as §1

Assay [4] deals with T1, human urinary kallikrein. Kind of assay: Km and Vmax of substrates with purified human urinary kallikrein (Lineweaver-Burk double reciprocal plot). How it is done:
The double reciprocal plot method of H. Lineweaver and D. Burk (J.Am.Chem.Soc. 56, 658 (1934)) was used to estimate Km and Vmax for these substrates. Purified human urinary kallikrein prepared as described by Oza, N. B. and Ryan, J., supra, was used in this study. Reactions were conducted at 37° C. for 15 minutes with 62.5 ng of enzyme and the indicated amount of substrate, in 0.05 M tris-HCl pH 9.5. Reactions were terminated by the addition of a nine-fold excess of 0.1 N NaOH. The ^3 H-labeled product was separated from substrate by extraction with an equal volume (1 ml) of toluene. A 0.5 ml aliquot of the toluene phase was transferred to a scintillation vial containing a toluene-based scintillation fluid and counted. Results for H-ProPheArg-[^3 H]-benzylamide are shown in FIG. 1, and for H-ProPheArg-[^3 H]anilide in FIG. 2. The units of l/v were nmol^-1 min. Units of l/S were μmole^-1.liter.

The target in assay [5] is T1, human urinary kallikrein. Kind of assay: Relative activity of halogenated (4-iodoanilide) substrates, spectrophotometric standard assay. The conditions noted are these: 150 nmol substrate in 0.7 ml 0.05 tris-HCl, pH 8.1, 37° C. Here is the method:
Unlabeled halogenated 4-iodoanilide substrates, prepared essentially as described in Example 5, were compared with respect to reaction rate with human urinary kallikrein in a standard assay. Each substrate, 150 nmol, was incubated with purified human urinary kallikrein in 0.7 ml of 0.05 tris-HCl, pH 8.1 at 37° C. At timed intervals, 100 μl of reaction mixture was added to 1.0 ml of 0.1 N NaOH. The resulting solution was extracted with CHCl3 and the organic phase was evaporated to dryness. The residue was dissolved in buffer and examined spectrophotometrically in the 240-300 nm range, where a difference spectrum between substrate and product is measureable. The results are shown in Table 1, with rates of hydrolysis expressed as nmol/min/mg enzyme.

Where [6] appears, read: 62.5 ng purified enzyme, 0.05 M tris-HCl pH 9.5, 37° C., 15 minutes.

Where a SMILES comes first, the peptide text is derived from it. The star is where a group is joined. (3H)benzylamide = C-terminal benzylamide carrying tritium label; (3H)anilide = C-terminal anilide carrying tritium label; pNA = O=[N+]([O-])c1ccc(N*)cc1; Bz = O=C(c1ccccc1)*; X2 = Ic1cccc(CN*)c1; X3 = Ic1ccc(CN*)cc1; X1 = Ic1ccc(N*)cc1

purified urinary kallikrein, sequence (P06870 25-262): as above

Regarding `[3H]c1cccc(CNC(=O)[C@H](CCCNC(=N)N)NC(=O)[C@H](Cc2ccccc2)NC(=O)[C@@H]2CCCN2C(=O)c2ccccc2)c1` [Benzoyl-ProPheArg-[^3 H]benzylamide], the “rate of hydrolysis relative to the non-acylated compounds” value in assay [1] is on record as “about 1/2”. Consider `N=C(N)NCCC[C@H](NC(=O)[C@H](Cc1ccccc1)NC(=O)[C@@H]1CCCN1C(=O)[C@H](CO)NC(=O)[C@@H](N)Cc1ccccc1)C(=O)NCc1cccc(I)c1` [H-PheSerProPheArg-3-iodobenzylamide] (H-FSPFR-X2), for which, on human urinary kallikrein [2], the “activity as substrate for human urinary kallikrein (in words)” value (“activity as substrate” below) is recorded as “suitable substrates”.

Take `N=C(N)NCCC[C@H](NC(=O)[C@H](Cc1ccccc1)NC(=O)[C@@H]1CCCN1C(=O)[C@H](CO)NC(=O)[C@@H](N)Cc1ccccc1)C(=O)NCc1ccc(I)cc1` [H-PheSerProPheArg-4-iodobenzylamide] (H-FSPFR-X3): the “activity as substrate” value at human urinary kallikrein [2] is on record as “suitable substrates”. Usually Km stands for the concentration of substrate that gives half-maximal velocity. On to `[3H]c1cccc(CNC(=O)[C@H](CCCNC(=N)N)NC(=O)[C@H](Cc2ccccc2)NC(=O)[C@@H]2CCCN2)c1` [H-ProPheArg-[^3 H]benzylamide, H-ProPheArg-[^3 H] benzylamide], for which the “Amount of Enzyme Required for 10% Hydrolysis” value at human urinary kallikrein [3] (pH 7.5) is on record as 265 ng; on human urinary kallikrein [3] (pH 9.5) it was 45 ng; with Thrombin, “No hydrolysis”; in the assay with Plasmin (pH 7.5), 17,200 ng; in the assay on Plasmin (pH 9.5) it was 30,600 ng; in the assay on Trypsin (pH 7.5), 400 ng. Further, the “Amount of Enzyme Required for 10% Hydrolysis” value is 1,030 ng with Trypsin (pH 9.5), “No hydrolysis” in the assay on α-Chymotrypsin and “No hydrolysis” in the assay on Urokinase. Besides, the “Amount of Enzyme Required for 10% Hydrolysis (as enzyme concentration, in brackets)” value on human urinary kallikrein [3] (pH 9.5) is given as 10 nM. Also, on human urinary kallikrein [4] (setting [6]), the Km is 3 µM. Further, the Vmax at human urinary kallikrein [4] (setting [6]) is 0.88 mmol/min/mg protein.

As to `N=C(N)NCCC[C@H](NC(=O)[C@H](Cc1ccccc1)NC(=O)[C@@H]1CCCN1C(=O)[C@@H](N)CO)C(=O)NCc1cccc(I)c1` [H-SerProPheArg-3-iodobenzylamide] (H-SPFR-X2), the “activity as substrate” value on human urinary kallikrein [2] was “suitable substrates”. Consider `N=C(N)NCCC[C@H](NC(=O)[C@H](Cc1ccccc1)NC(=O)[C@@H]1CCCN1C(=O)[C@@H](N)CO)C(=O)NCc1ccc(I)cc1` [H-SerProPheArg-4-iodobenzylamide] (H-SPFR-X3), for which the “activity as substrate” value at human urinary kallikrein [2] is reported as “suitable substrates”. Regarding `N=C(N)NCCC[C@H](NC(=O)[C@@H](N)Cc1ccccc1)C(=O)Nc1ccc(I)cc1` [Phe--Arg--4-iodoanilide], the “Rate of Hydrolysis” value on human urinary kallikrein [5] was “Nil”.

Consider `N=C(N)NCCC[C@H](NC(=O)[C@H](Cc1ccccc1)NC(=O)[C@@H]1CCCN1C(=O)[C@H](CO)NC(=O)[C@@H](N)Cc1ccccc1)C(=O)Nc1ccc(I)cc1` [Phe--Ser--Pro--Phe--Arg--4-iodoanilide] (H-FSPFR-X1), for which the “Rate of Hydrolysis” value at human urinary kallikrein [5] amounted to 1.12 nmol/min/mg enzyme. Regarding `N=C(N)NCCC[C@H](NC(=O)[C@H](Cc1ccccc1)NC(=O)[C@@H]1CCCN1)C(=O)Nc1ccc(I)cc1` [Pro--Phe--Arg--4-iodoanilide], the “Rate of Hydrolysis” value on human urinary kallikrein [5] is reported as 0.73 nmol/min/mg enzyme. Regarding `N=C(N)NCCC[C@H](NC(=O)[C@H](Cc1ccccc1)NC(=O)[C@@H]1CCCN1C(=O)[C@@H](N)CO)C(=O)Nc1ccc(I)cc1` [Ser--Pro--Phe--Arg--4-iodoanilide] (H-SPFR-X1), the “Rate of Hydrolysis” value at human urinary kallikrein [5] was 0.62 nmol/min/mg enzyme. `[3H]c1cccc(CNC(=O)[C@H](CCCNC(=N)N)NC(=O)[C@H](Cc2ccccc2)NC(=O)[C@@H]2CCCN2C(C)=O)c1` [acetylated]: the “rate of hydrolysis relative to the non-acylated compounds” value in [1] was “generally similar rates”. In the case of `N=C(N)NCCC[C@H](NC(=O)[C@H](Cc1ccccc1)NC(=O)[C@@H]1CCCN1C(=O)c1ccccc1)C(=O)Nc1ccc([N+](=O)[O-])cc1` [benzoyl-ProPheArg-p-nitroanilide, reference compound] (Bz-Pro-Phe-Arg-pNA), the “activity as substrate” value on human urinary kallikrein [2] is “inactive”.

In the case of `[3H]c1cccc(CNC(=O)[C@H](CCCNC(=N)N)NC(=O)[C@H](Cc2ccccc2)NC(=O)[C@@H]2CCCN2C(=O)C2CCCC2)c1` [cyclopentylcarbonylated], in [1], the “rate of hydrolysis relative to the non-acylated compounds” value is “generally similar rates”. Consider `[3H]c1cccc(CNC(=O)[C@H](CCCNC(=N)N)NC(=O)[C@H](Cc2ccccc2)NC(=O)[C@@H]2CCCN2C(=O)CCC(=O)O)c1` [succinyl derivative, Succinyl-ProPheArg-[^3 H]benzylamide], for which, in [1], the “rate of hydrolysis relative to the non-acylated compounds” value was 1/10. As to “H-PheSerProPheArg-[^3 H] anilide (H-FSPFR-{(3H)anilide})”, in the assay with human urinary kallikrein [2], the “activity as substrate” value was “substrates”. Same read-out and setting: for “H-PheSerProPheArg-[^3 H]benzylamide (H-FSPFR-{(3H)benzylamide})” the value was “suitable substrates”. In the case of H-ProPheArg-[^3 H]anilide, the Vmax was 0.39 mmol/min/mg protein at human urinary kallikrein [4] (setting [6]) and “approximately 0.39 mmol/min/mg” on human urinary kallikrein [4] (as summarised in the detailed description). For the same molecule, the Km was 0.8 µM on human urinary kallikrein [4] (62.5 ng purified enzyme, 0.05 M tris-HCl pH 9.5, 37° C., 15 minutes, listed as H-ProPheArg-[^3 H]-anilide) and about 0.8 µM at human urinary kallikrein [4] (62.5 ng purified enzyme, 0.05 M tris-HCl pH 9.5, 37° C., 15 minutes, listed as ProPheArg-[^3 H] anilide). For the same molecule, the “activity as substrate” value on human urinary kallikrein [2] is listed as “excellent substrate”. On to “H-SerProPheArg-[^3 H]-benzylamide (H-SPFR-{(3H)benzylamide})”, for which the “activity as substrate” value with human urinary kallikrein [2] is listed as “suitable substrates”. As to “H-SerProPheArg-[^3 H]anilide (H-SPFR-{(3H)anilide})”, the “activity as substrate” value with human urinary kallikrein [2] is “substrates”.

These data come from US4327178A, “Urinary kallikrein assay: specific substrates and assay method” (University of Miami, priority 1981, dated 1982).
